In PMC11486130, “Structure-guided discovery of novel dUTPase inhibitors with anti-Nocardia activity by computational design” (Journal of Enzyme Inhibition and Medicinal Chemistry, 2024):

Experiments:
NsdUTPase A22V = molecular target: T1, NsdUTPase A22V (Nocardia seriolae, UniProt A0ABF7PKI9, A22V); experiment: Kd to A22V mutant of NsdUTPase; format: binding, N. seriolae
T1 sequence (A0ABF7PKI9 1-166 A22V): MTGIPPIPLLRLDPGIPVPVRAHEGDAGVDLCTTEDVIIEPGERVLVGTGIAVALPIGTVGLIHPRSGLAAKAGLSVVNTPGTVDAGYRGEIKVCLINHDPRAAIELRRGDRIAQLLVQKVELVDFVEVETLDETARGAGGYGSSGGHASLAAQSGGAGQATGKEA

NsdUTPase K93A = molecular target: T2, NsdUTPase K93A (Nocardia seriolae, UniProt A0ABF7PKI9, K93A); experiment: Kd to K93A mutant of NsdUTPase; format: binding, N. seriolae
T2 sequence (A0ABF7PKI9 1-166 K93A): T1 sequence (A0ABF7PKI9 1-166 A22V)

SMILES	Kd (NsdUTPase A22V)	Kd (NsdUTPase K93A)
C=CCn1c(-c2ccc(Oc3ccccc3)cc2)nc2cc(C)ccc21 [12b, 1-Allyl-5-methyl-2-(4-phenoxyphenyl)-1H-benzo[d]imidazole]	3.16 µM	40.9 µM
C=CCn1c(/C=C/c2ccccc2)nc2cc(C(F)(F)F)ccc21 [4b, (E)-1-Allyl-2-styryl-5-(trifluoromethyl)-1H-benzo[d]imidazole]	5.34 µM	50.7 µM
